Experimental findings from patent US20240366577A1, “CONTROLLED LONG-TERM DRUG DELIVERY AND METHODS THEREOF” (THE JOHNS HOPKINS UNIVERSITY, priority 2021, published 2024) are described below.

Each structure is given as a SMILES string.

One experiment deals with 4T1 tumors. The experiment can be described thus: orthotopic parent 4T1 TNBC tumor growth. Type of experiment: in vivo, BALB/c mice. How it is done:
Namely, 4T1 tumors were treated with either PBS (PBS CONTROL), intraperitoneal (IP) bolus sorafenib (25 mg/kg BW/day) (IP BOLUS), 3 mg IP injected sorafenib crystals (IP CRYSTAL 3 MG), or sorafenib crystals (3 mg: SC CRYSTAL (3 MG); 10 mg: SC CRYSTAL (10 MG)) injected around developed tumors in the subcutaneous (SC) mammary fatpad. Furthermore, to truly test the utility of crystalline sorafenib in treating such an aggressive TNBC model, treatment was carried out retrospectively and only started once tumor volumes reached ˜225-250 mm^3. A positive control liquid-dissolved and daily injected drug treatment group was included, where mice were dosed with a daily bolus of 25 mg sorafenib/kg of mouse BW. […] This may be supported by our prior observation that in the IP compartment, where there is higher 10 liquid turnover as compared to the SC space, crystalline drugs usually have a faster kinetic of release over time.
4T1 or 4T1-luc2 cells were trypsinized using 0.25% Trypsin-EDTA, then diluted with the appropriate complete culture media and spun in a centrifuge at 300 g for 5 min. The supernatant was aspirated, and the pellet was re-suspended in serum-free RPMI 1640. The solution was centrifuged again, and the supernatant aspirated. Re-suspension, centrifugation, and aspiration was repeated once more. 5 mL of RPMI-1640 was then added to the pellet. 10 μL of the cell suspension was removed and mixed with 10 μL of Trypan blue stain 0.4% (ThermoFisher). Cells were counted with a Countess automated cell counter. Cell solutions were centrifuged one more time, the supernatant aspirated, and the pellet resuspended in the amount of RPMI-1640 required to achieve a concentration of 5×10^5 cells/200 μL of media. Tumor cells were then administered orthotopically in naive (and anesthetized) BALB/c mice into the right inguinal mammary fat pad 21 with 200 μL aliquots of the cell suspension, using an insulin syringe. Tumors were measured externally using a digital caliper, and volume was calculated (!″* (length * height) *−length * height). Except in the 4T1-luc2 trial, treatment began once tumors reached an average volume of 220-250 mm3. Experimental end point was deemed when solid tumors reached a volume of no more than 2000 mm3. Tumors were extracted and harvested, half stored in 4% paraformaldehyde diluted from 32% (Cat#50980495, Electron Microscopy Services) with DI H2O, and half frozen in liquid nitrogen, then stored at −80° C.
Once tumors had reached an average volume of ˜220-250 mm^3, mice were administered either subcutaneously or intraperitoneally with 3 or 10 mg of crystalline sorafenib, diameter ˜150-200 μm, suspended in 200 μL of sterile saline using an 18 g needle. […]

The next experiment concerns tumor endothelial CD31. The experiment is described as follows: immunofluorescent staining of tumors: CD31. Type of experiment: in vivo, BALB/c mice. Conditions: single SC injection of 3 mg or 10 mg crystals, compared to daily bolus. As for the experimental part:
To confirm the effects seen at the level of RNA, immunofluorescent staining of excised tumor samples that were in parallel fixed with paraformaldehyde and embedded in paraffin was performed. […] Co-localization of CD31 with aSMact was, as expected, not linked in crystal sorafenib-treated tumors, where CD31 reduction was more extensive than with daily, bolus sorafenib.
Immunofluorescence imaging was used to determine anti-angiogenic drug efficacy. Tumor tissues were retrieved from mice and fixed overnight using 4% paraformaldehyde at 4° C. After fixation, retrieved tissue samples were moved to 70% ethanol. Samples were then processed for paraffin embedding, sectioning and staining. […] Next, tissues were incubated for 1 hour in an immunostaining cocktail solution consisting of NucBlue (Thermo), specific marker probes (1:200 dilution) anti-CD31 (Cat#DIA-310, HistoBioTec) and anti-alphaSmoothMuscle actin-Cy3 (Sigma) in Dako staining buffer. For CD31, a goat anti-rat alexa-fluor647 secondary antibody was also used (1:400). After staining, samples were rinsed again with 1X PBS three times prior to slides being cover slipped with Pro-long anti-fade Gold (Thermo). […] For stain quantification, images were converted into 8-bit image files, a background threshold was determined using NIH ImageJ, and then all images were processed using an NIH ImageJ macro to quantify the area of positive stain. […]

As to `CNC(=O)c1cc(Oc2ccc(NC(=O)Nc3ccc(Cl)c(C(F)(F)F)c3)cc2)ccn1` [crystalline sorafenib, sorafenib], the “tumor response (tumor volume)” value in the experiment with 4T1 tumors (single IP injection, 3 mg crystals) is reported as “less response than 10 mg SC but more than a comparable 3 mg dose injected SC”; with 4T1 tumors (single local SC injection, 10 mg crystals, start at ~225-250 mm^3), “tumor stasis”; with 4T1 tumors (single local SC injection, 2-3 mg crystals, start at ~225-250 mm^3) it was “tumor delays only”. Further, the “tumor endothelial CD31 levels (immunofluorescence)” value in the experiment with tumor endothelial CD31 is listed as “reduction is greater”.
